# Results as given in patent US7169792B2, “Method of treating bacterial infections using gemifloxacin or a salt thereof and a β-lactam antibiotic” (priority 2002, dated 2007).
# Read-outs that look alike come from different tables or passages of the source.
# Key:
# S. saprophyticus 662 = assay: checkerboard titration, gemifloxacin and amoxicillin (MIC, FIC); assay type: cell-based, Staphylococcus saprophyticus
# Protocol: The concentration range tested varied for each drug/organism combination to encompass the MIC endpoints of the individual components. […] The last well (H) in column 12 was used as a positive growth control well, containing only medium and test isolate.
# The bacteria were diluted to a 0.5 McFarland standard and then further diluted 1/50. Each well was inoculated with 25 μl of the isolate to give a final inoculum density of approximately 5×10^5 cfu/ml. […] After inoculation, the plates were covered with a 96 well microtitre plate lid and incubated at 35° C. in ambient air for 20–24 hours. A 10 μl aliquot of the inoculum was plated on trypticase soy agar containing 5% sheep blood to determine the purity of the final test inoculum.
# 2) S. saprophyticus 662 was obtained from the SmithKline Beecham Anti-Infectives Research Culture Collection and stored at −80° C. in 10% glycerol. Before testing, the isolate was passaged onto agar plates (trypticase soy agar containing 5% sheeps blood) from the frozen stock for two consecutive days. Cation adjusted Mueller Hinton broth (BBL, Cockeysville, Md.) was used for the isolate.
# The combined effect of gemifloxacin and amoxicillin was investigated in S. saprophyticus 662 by using the checkerboard titration method described in Example 1.
# E. coli ATCC 25922 = assay: checkerboard titration, gemifloxacin and cefaclor (MIC, FIC); assay type: cell-based, Escherichia coli
# Protocol: (§1) Checkerboard microtitre broth dilution plates were prepared using the Hamilton MicroLab AT Plus system (Reno, Nev.). Two-fold serial dilutions (50 μl) of cefotaxime were made in columns 1 through 11 of a microtitre plate. Two-fold serial dilutions of gemifloxacin were prepared manually and the MicroLab AT Plus was used to dispense 25 μl of gemifloxacin at each concentration into rows A through G of the microtitre plate. The concentration range tested varied for each drug/organism combination to encompass the MIC endpoints of the individual components. Column 12 contained two fold serial dilutions of gemifloxacin only, and row H contained two fold serial dilutions of cefotaxie only. The last well (H) in column 12 was used as a positive growth control well, containing only medium and test isolate.
# (§2) The bacteria were diluted to a 0.5 McFarland standard and then further diluted 1/50. Each well was inoculated with 25 μl of the isolate to give a final inoculum density of approximately 5×10^5 cfu/ml. The MicroLab AT Plus 2 was used to add the inoculum to the microtitre plates. After inoculation, the plates were covered with a 96 well microtitre plate lid and incubated at 35° C. in ambient air for 20–24 hours. A 10 μl aliquot of the inoculum was plated on trypticase soy agar containing 5% sheep blood to determine the purity of the final test inoculum.
# (§3) Following incubation, a microtitre mirror reader (Cooke Instruments Ltd., England) was used to assist in determining the microdilution MIC endpoints. The MIC was determined as the lowest concentration of compound that inhibited visible growth of the organism.
# (§4) The Fractional Inhibitory Concentrations (FICs) were calculated using the following formula: (A)/(MICA)+(B)/(MICB)=FICA+FICB=FICIndex wherein: • A is the MIC of drug A in the presence of drug B • B is the MIC of drug B in the presence of drug A • MIC A is the MIC of the organism to drug A alone • MIC B is the MIC of the organism to drug B alone • FIC A is the fractional inhibitory concentration of drug A • FIC B is the fractional inhibitory concentration of drug B
# (§5) The FIC indices were interpreted using the following criteria: • ≦0.5=Synergy • >0.5–1=Additive • >1–2=Indifference • >2=Antagonism
# 3) E. coli ATCC 25922 was obtained from the SmithKline Beecham Anti-Infectives Research Culture Collection and stored at −80° C. in 10% glycerol. Before testing, the isolate was passaged onto agar plates (trypticase soy agar containing 5% sheeps blood) from the frozen stock for two consecutive days. […]
# The combined effect of gemifloxacin and cefaclor was investigated in E. coli ATCC 25922 by using the checkerboard titration method described in Example 1. FIC Indices were calculated and interpreted as in Example 1.
# E. faecalis ATCC 29212 = assay: checkerboard titration, gemifloxacin and cefotaxime (MIC, FIC); assay type: cell-based, Enterococcus faecalis
# Protocol: 1) The combined effect of gemifloxacin and cefotaxime was investigated in E. faecalis by using a checkerboard titration method. Evaluation for synergistic activity was carried out by calculation of fractional inhibitory concentrations (FICs) according to the method of Eliopoulos et al (1996, Antimicrobial Combinations, Antibiotics in Laboratory Medicine, Victor Lorian, 4th Edition, pp 337–338, Baltimore, Md., Williams and Wilkins).
# E. faecalis ATCC 29212 was obtained from the SmithKline Beecham Anti-Infectives Research Culture Collection and stored at −80° C. in 10% glycerol. Before testing, the isolate was passaged onto agar plates (trypticase soy agar containing 5% sheeps blood) from the frozen stock for two consecutive days. Cation adjusted Mueller Hinton broth (BBL, Cockeysville, Md.) was used for the isolate.
# as §1, §2, §3, §4, §5
# [1] = test system: clinically isolated P. aeruginosa; assay: checkerboard titration, gemifloxacin or ciprofloxacin with ceftazidime, 27 clinical isolates (Example 4); assay type: cell-based, Pseudomonas aeruginosa; details: for FICB: FIC of ceftazidime; for MIC: Pseudomonas aeruginosa
# Protocol: The test organisms were clinical isolates collected in Korea. Organisms were frozen at −70 C prior to testing. Testing was done by the checkerboard method in 96-well plates using Mueller-Hinton broth. […] Ceftazidime was also dispensed alone in the first row in the first column. Test strains of P. aeruginosa were grown for 18 h in Mueller-Hinton broth, and then these overnight cultures were diluted with the same fresh medium to the density of approximately 10^7 CFU/mL. The bacterial concentrations were determined by measuring optical density or turbidity of the suspension and were verified by standard colony counts on antibiotic-free agar plates. A diluted bacterial solution was applied to 96-well plates containing serially diluted antimicrobial agents to yield 10^4 CFU per spot. Plates were incubated aerobically overnight.
# (§6) Minimal inhibitory concentrations (MICs) for each separate drug were determined. For wells along the growth-no growth interface, synergy was determined by calculating the Fractional Inhibitory Concentration (FIC) index. The Fractional Inhibitory Concentration (FIC) indices were calculated using the following formula: FICindex=FICA+FICB=[A]/MICA+[B]/MICB • Wherein: • FICA(or B), is the FIC of drug A (or B) MICA (or B) is the MIC of the organism to drug A (or B) • A (or B) is concentration of drug A (or B) that is the lowest inhibitory concentration
# (§7) The FIC indices were interpreted using the following criteria: • ≦0.5=Synergy • >0.5–1.0=Additive • >1.0–4.0=Indifference • >4.0=Antagonism
# [2] = test system: clinically isolated P. aeruginosa strains; assay: checkerboard method, gemifloxacin or ciprofloxacin with ceftazidime, 6 clinical isolates (Example 5); assay type: cell-based, Pseudomonas aeruginosa; details: for FICB: FIC of ceftazidime; for MIC: Pseudomonas aeruginosa
# Protocol: as §6, §7
# The test organisms were clinical isolates collected in Korea. Organisms were frozen at −70 C. prior to testing. […] Gemifloxacin or ciprofloxacin solution was dispensed alone in the first row and combined with ceftazidime in the remaining rows. Ceftazidime as also dispensed alone in the first row in the first column. Test strains of P. aeruginosa were grown for 18 h in Mueller-Hinton broth, and then these overnight cultures were diluted with the same fresh medium to the density of approximately 10^7 CFU/mL. The bacterial concentrations were determined by measuring optical density or turbidity of the suspension and were verified by standard colony counts on antibiotic-free agar plates. A diluted bacterial solution was applied to 96-well plates containing serially diluted antimicrobial agents to yield 5×10^5 CFU/mL. Plates were incubated at 35 C for 18 hours.
# MICs for each separate drug were determined, and for wells along the growth-no growth interface, synergy was determined by calculating FIC Indices as in Example 4. FIC Indices were calculated and interpreted as in Example 4.
# [3] = drug alone, no unit in this line (other lines μg/ml)
smiles,measurement,setting,value
CC1(C)S[C@@H]2[C@H](NC(=O)[C@H](N)c3ccc(O)cc3)C(=O)N2[C@H]1C(=O)O [amoxicillin],MIC,"S. saprophyticus 662; Staphylococcus saprophyticus, 662, in presence of gemifloxacin 0.004 μg/ml, read-out: amoxicillin MIC",0.125 µg/mL
N[C@@H](C(=O)N[C@@H]1C(=O)N2C(C(=O)O)=C(Cl)CS[C@H]12)c1ccccc1 [cefaclor],MIC,"E. coli ATCC 25922; Escherichia coli, ATCC25922, in presence of gemifloxacin 0.002 μg/ml, read-out: cefaclor MIC",1 µg/mL
same,cefaclor MIC,E. coli ATCC 25922; [3],4
CO/N=C(\C(=O)N[C@@H]1C(=O)N2C(C(=O)O)=C(COC(C)=O)CS[C@H]12)c1csc(N)n1 [cefotaxime],MIC,"E. faecalis ATCC 29212; Enterococcus faecalis, ATCC29212, in presence of gemifloxacin 0.008 μg/ml, read-out: cefotaxime MIC",16 µg/mL
same,cefotaxime MIC,E. faecalis ATCC 29212; [3],256
same,amoxicillin MIC,S. saprophyticus 662; [3],0.5
CC(C)(O/N=C(\C(=O)N[C@@H]1C(=O)N2C(C(=O)[O-])=C(C[n+]3ccccc3)CS[C@H]12)c1csc(N)n1)C(=O)O [ceftazidime],FICB,[1]; P. aeruginosa 6003,0.25
same,FICB,[1]; P. aeruginosa 6021,0.25
same,FICB,[1]; P. aeruginosa 6030,0.25
same,FICB,[1]; P. aeruginosa 6045,0.13
same,FICB,[1]; P. aeruginosa 6047,0.03
same,FICB,[1]; P. aeruginosa 6113,0.25
same,FICB,[1]; P. aeruginosa 6123,0.25
same,FICB,[1]; P. aeruginosa 6173,0.25
same,FICB,[1]; P. aeruginosa P032,0.25
same,FICB,[1]; P. aeruginosa P036,0.13
same,FICB,[1]; P. aeruginosa P039,0.25
same,MIC,"[1]; P. aeruginosa 6003, drug alone, read-out: ceftazidime MIC",4 µg/mL
same,MIC,"[1]; P. aeruginosa 6003, in combination with gemifloxacin, read-out: Cceftazidime MIC",1 µg/mL
same,MIC,"[1]; P. aeruginosa 6021, drug alone, read-out: ceftazidime MIC",4 µg/mL
same,MIC,"[1]; P. aeruginosa 6021, in combination with gemifloxacin, read-out: Cceftazidime MIC",1 µg/mL
same,MIC,"[1]; P. aeruginosa 6030, drug alone, read-out: ceftazidime MIC",4 µg/mL
same,MIC,"[1]; P. aeruginosa 6030, in combination with gemifloxacin, read-out: Cceftazidime MIC",1 µg/mL
same,MIC,"[1]; P. aeruginosa 6045, drug alone, read-out: ceftazidime MIC",64 µg/mL
same,MIC,"[1]; P. aeruginosa 6045, in combination with gemifloxacin, read-out: Cceftazidime MIC",8 µg/mL
same,MIC,"[1]; P. aeruginosa 6047, drug alone, read-out: ceftazidime MIC",64 µg/mL
same,MIC,"[1]; P. aeruginosa 6047, in combination with gemifloxacin, read-out: Cceftazidime MIC",2 µg/mL
same,MIC,"[1]; P. aeruginosa 6113, drug alone, read-out: ceftazidime MIC",8 µg/mL
same,MIC,"[1]; P. aeruginosa 6113, in combination with gemifloxacin, read-out: Cceftazidime MIC",2 µg/mL
same,MIC,"[1]; P. aeruginosa 6123, drug alone, read-out: ceftazidime MIC",4 µg/mL
same,MIC,"[1]; P. aeruginosa 6123, in combination with gemifloxacin, read-out: Cceftazidime MIC",1 µg/mL
same,MIC,"[1]; P. aeruginosa 6173, drug alone, read-out: ceftazidime MIC",4 µg/mL
same,MIC,"[1]; P. aeruginosa 6173, in combination with gemifloxacin, read-out: Cceftazidime MIC",1 µg/mL
same,MIC,"[1]; P. aeruginosa P032, drug alone, read-out: ceftazidime MIC",4 µg/mL
same,MIC,"[1]; P. aeruginosa P032, in combination with gemifloxacin, read-out: Cceftazidime MIC",1 µg/mL
same,MIC,"[1]; P. aeruginosa P036, drug alone, read-out: ceftazidime MIC",32 µg/mL
same,MIC,"[1]; P. aeruginosa P036, in combination with gemifloxacin, read-out: Cceftazidime MIC",4 µg/mL
same,MIC,"[1]; P. aeruginosa P039, drug alone, read-out: ceftazidime MIC",8 µg/mL
same,MIC,"[1]; P. aeruginosa P039, in combination with gemifloxacin, read-out: Cceftazidime MIC",2 µg/mL
same,FICB,[2]; P. aeruginosa 6140,0.25
same,FICB,[2]; P. aeruginosa 6168,0.06
same,FICB,[2]; P. aeruginosa P003,0.06
same,MIC,"[2]; P. aeruginosa 6140, drug alone, read-out: ceftazidime MIC",32 µg/mL
same,MIC,"[2]; P. aeruginosa 6140, in combination with gemifloxacin, read-out: Cceftazidime MIC",8 µg/mL
same,MIC,"[2]; P. aeruginosa 6168, drug alone, read-out: ceftazidime MIC",32 µg/mL
same,MIC,"[2]; P. aeruginosa 6168, in combination with gemifloxacin, read-out: Cceftazidime MIC",2 µg/mL
same,MIC,"[2]; P. aeruginosa P003, drug alone, read-out: ceftazidime MIC",32 µg/mL
same,MIC,"[2]; P. aeruginosa P003, in combination with gemifloxacin, read-out: Cceftazidime MIC",2 µg/mL
